# Measurements: PMC9025269, “Synthesis and Anti-Hepatitis B Activities of 3′-Fluoro-2′-Substituted Apionucleosides” (Molecules, 2022)
# Target: T1, human DNA polymerase γ (Homo sapiens, UniProt P54098)
# T1 construct: purchased Abcam 196066
# T1 sequence (P54098 1-1239): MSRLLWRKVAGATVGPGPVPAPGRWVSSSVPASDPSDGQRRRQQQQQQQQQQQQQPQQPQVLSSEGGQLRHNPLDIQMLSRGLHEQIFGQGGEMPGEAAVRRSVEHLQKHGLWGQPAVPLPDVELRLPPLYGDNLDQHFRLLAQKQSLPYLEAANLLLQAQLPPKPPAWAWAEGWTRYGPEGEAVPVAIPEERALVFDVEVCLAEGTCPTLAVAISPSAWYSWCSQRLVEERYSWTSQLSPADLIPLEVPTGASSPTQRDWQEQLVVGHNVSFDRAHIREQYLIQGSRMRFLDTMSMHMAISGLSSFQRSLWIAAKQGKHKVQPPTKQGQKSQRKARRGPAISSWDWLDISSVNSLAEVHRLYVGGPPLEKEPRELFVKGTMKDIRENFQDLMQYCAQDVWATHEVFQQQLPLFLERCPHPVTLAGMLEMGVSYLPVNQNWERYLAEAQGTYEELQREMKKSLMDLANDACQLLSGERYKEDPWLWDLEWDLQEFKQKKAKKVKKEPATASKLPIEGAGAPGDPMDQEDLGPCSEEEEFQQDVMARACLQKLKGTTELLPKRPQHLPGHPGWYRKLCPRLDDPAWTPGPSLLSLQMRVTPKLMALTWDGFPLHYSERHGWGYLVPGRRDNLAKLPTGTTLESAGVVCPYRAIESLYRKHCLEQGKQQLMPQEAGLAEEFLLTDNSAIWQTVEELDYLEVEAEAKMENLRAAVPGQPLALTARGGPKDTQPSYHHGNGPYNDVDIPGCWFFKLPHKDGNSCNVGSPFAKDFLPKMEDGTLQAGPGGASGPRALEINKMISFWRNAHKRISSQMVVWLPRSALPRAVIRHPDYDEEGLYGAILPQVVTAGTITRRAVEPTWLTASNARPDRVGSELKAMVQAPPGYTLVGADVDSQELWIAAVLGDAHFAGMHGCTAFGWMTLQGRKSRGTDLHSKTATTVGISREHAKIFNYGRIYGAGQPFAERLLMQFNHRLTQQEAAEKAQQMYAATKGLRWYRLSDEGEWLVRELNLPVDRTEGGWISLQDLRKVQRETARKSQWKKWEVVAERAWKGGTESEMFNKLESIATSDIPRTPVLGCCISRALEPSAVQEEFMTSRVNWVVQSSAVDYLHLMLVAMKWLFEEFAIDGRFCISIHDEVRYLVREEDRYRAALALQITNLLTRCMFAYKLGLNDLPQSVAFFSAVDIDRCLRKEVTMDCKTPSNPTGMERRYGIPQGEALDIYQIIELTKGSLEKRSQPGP
# Assay: Human DNA polymerase γ DdDp assay
# Assay type: biochemical
# Method: The DNA-dependent DNA polymerization (DdDp) activity of human DNA polymerases α, β, and γ was measured as described previously. Briefly, the assays were run with 5 U/mL recombinant DNA polymerase α (CHIMERx, cat#1075-1), 0.5 U/mL recombinant DNA polymerase β (CHIMERx, cat#1077-1), or 0.1 μg/mL recombinant DNA polymerase γ (Abcam, cat#196066), 62 μg/mL activated calf thymus DNA, 50 mM Tris-HCl (pH 8.0), 60 mM KCl, 5 mM MgCl2, 4 mM dithiothreitol (DTT), 0.1 mg/mL BSA, 2 μM dCTP, 2 μM dATP, 2 μM dGTP, 0.05 μCi/μL ^3H-dTTP (Perkin Elmer) and compounds at various concentrations at 30 °C for 2 h. The 50 μL reactions were processed following the same filter plate method as described above for HIV-1 RT. Acid-precipitated tritiated DNA products retained on the filters were detected by a Trilux MicroBeta scintillation reader (Perkin Elmer). All data were analyzed as described above for HIV-1 RT.
smiles,measurement,value
"Nc1ncnc2c1ncn2[C@@H]1OC[C@](F)(COP(=O)(O)OP(=O)(O)OP(=O)(O)O)[C@H]1CO [Compound 38, ((3S,4S,5R)-5-(6-Amino-9H-purin-9-yl)-3-fluoro-4-(hydroxymethyl)tetrahydrofuran-3-yl)methyl triphosphate]",IC50,> 100 µM
